From ChEMBL document CHEMBL3286343, “Fused Thiazin-3-ones as KCa3.1 Inhibitors” (ACS Med Chem Lett, 2014)

Biological target: Intermediate conductance calcium-activated potassium channel protein 4 (Homo sapiens, UniProt O15554)
Assay: Inhibition of human KCa3.1 overexpressed in HEK293 cells assessed as thallium influx preincubated for 15 mins followed by thallium/ionomycin addition measured for 50 secs by FLIPR assay
Assay type: cell-based

Sequence of Intermediate conductance calcium-activated potassium channel protein 4 (O15554 whole entry): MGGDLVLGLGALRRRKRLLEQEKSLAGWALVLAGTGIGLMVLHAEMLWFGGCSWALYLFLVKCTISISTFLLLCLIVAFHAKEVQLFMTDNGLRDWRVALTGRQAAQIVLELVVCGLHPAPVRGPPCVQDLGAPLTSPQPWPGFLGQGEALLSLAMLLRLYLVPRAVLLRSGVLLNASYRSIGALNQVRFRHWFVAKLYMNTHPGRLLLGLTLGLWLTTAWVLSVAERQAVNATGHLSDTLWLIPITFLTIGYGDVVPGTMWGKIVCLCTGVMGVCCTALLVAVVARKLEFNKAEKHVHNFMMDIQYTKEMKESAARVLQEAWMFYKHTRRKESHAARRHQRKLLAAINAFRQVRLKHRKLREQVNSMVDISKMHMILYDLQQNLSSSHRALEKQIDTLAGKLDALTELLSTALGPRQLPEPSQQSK

SMILES | IC50
CC(c1ccc(F)c(OC(F)(F)F)c1)N1C(=O)CS(=O)(=O)c2ccsc21 (configuration not stated) | 0.039 µM
CC(c1ccc(F)c(OC(F)(F)F)c1)N1C(=O)CSc2ncsc21 (configuration not stated) | 0.06 µM
